In ChEMBL document CHEMBL1134110, “Anticonvulsant effects of new morphinan derivatives” (2001):

Tests used:
Format in all cases: functional
Rattus norvegicus [1] = experiment: The compound was tested for anticonvulsive activity expressed as seizure score after 4 hr of injection of kainic acid (10 mg/kg) and the drug at the dose of 40 mg/Kg in 15 rats
Rattus norvegicus [2] = experiment: Effect was expressed as mortality after injection of kainic acid (10 mg/kg) and the drug at the dose of 20 mg/Kg after 48 hr out of 19 animals
Rattus norvegicus [3] = experiment: Effect was expressed as mortality after injection of kainic acid (10 mg/kg) and the drug at the dose of 40 mg/Kg after 48 hr
Rattus norvegicus [4] = experiment: The compound was examined for circling behavior (marginal activity) using automated videotracking system 30 min after intraperitoneal injection at the dose of 20 mg/Kg in 12 rats
Rattus norvegicus [5] = experiment: The compound was tested for anticonvulsive activity expressed as seizure score after 4 hr of injection of kainic acid (10 mg/kg) and the drug at the dose of 20 mg/Kg in 15 rats
Rattus norvegicus [6] = experiment: The compound was examined for circling behavior (marginal activity) using automated videotracking system 30 min after intraperitoneal injection at the dose of 40 mg/Kg in 12 rats
Rattus norvegicus [7] = experiment: The compound was examined for circling behavior (marginal activity) using automated videotracking system 30 min after intraperitoneal injection at the dose of 5 mg/Kg in 12 rats
Rattus norvegicus [8] = experiment: The compound was tested for anticonvulsive activity expressed as seizure score after 4 hr of injection of kainic acid (10 mg/kg) in 15 rats

Row | Structure (SMILES) | Seizure score (Rattus norvegicus [1]) | Mortality (Rattus norvegicus [2]) | Mortality (Rattus norvegicus [3]) | Absolute turn angular/3 min (Rattus norvegicus [4]) | Seizure score (Rattus norvegicus [5]) | Absolute turn angular/3 min (Rattus norvegicus [6]) | Absolute turn angular/3 min (Rattus norvegicus [7]) | Seizure score (Rattus norvegicus [8])
1 | C=CCN1CCC23CCCCC2C1Cc1ccc(OC)cc13 (configuration not stated) | 2.2 | 6 | 6 | 224 | 2.9 | 282 | – | –
2 | C=CCN1CCC23CCCCC2C1Cc1ccc(OCC2CC2)cc13 (configuration not stated) | 2.2 | 5 | 4 | 175 | 2.7 | 242 | – | –
3 | COc1ccc2c(c1)C13CCCCC1C(C2)NCC3 (configuration not stated) | 2 | 4 | 4 | 186 | 2.4 | 258 | – | –
4 | C=CCOc1ccc2c(c1)C13CCCCC1C(C2)NCC3 (configuration not stated) | 1 | 11 | 1 | 152 | 1.5 | 184 | – | –
5 | CN1CCC23CCCCC2C1Cc1ccc(OCC2CC2)cc13 (configuration not stated) | 1.3 | 3 | 2 | 160 | 1.8 | 202 | – | –
6 | C=CCOc1ccc2c(c1)C13CCCCC1C(C2)N(C)CC3 (configuration not stated) | 1.5 | 3 | 3 | 168 | 1.9 | 219 | – | –
7 | CN1CC[C@]23CCCC[C@H]2[C@H]1Cc1ccc(O)cc13 [LEVORPHANOL] | 1.8 | 5 | 4 | 310 | 2.8 | 384 | – | –
8 | COc1ccc2c(c1)C13CCCCC1C(C2)N(C)CC3 (stereo not drawn) [RACEMETHORPHAN] | 1.4 | 4 | 2 | 192 | 2.2 | 265 | – | –
9 | c1ccc(C2(N3CCCCC3)CCCCC2)cc1 [PHENCYCLIDINE] | – | – | – | – | – | – | 420 | –
10 | C=C(C)[C@H]1CN[C@H](C(=O)O)[C@H]1CC(=O)O [KAINIC ACID] | – | – | – | – | – | – | – | 4.2
11 | Oc1ccc2c(c1)C13CCCCC1C(C2)NCC3 (configuration not stated) | 2.1 | 5 | 4 | 194 | 2.5 | 262 | – | –
12 | C=CCOc1ccc2c(c1)C13CCCCC1C(C2)N(CC1CC1)CC3 (configuration not stated) | 2 | 4 | 4 | 172 | 2.8 | 250 | – | –
